Test results: patent publication US20220332839A1, “USE OF PRG4 TO TREAT CANCER” (Lubris LLC, priority 2019, published 2022)
“Also recorded” adds a separate entry of the source.

Assays:
lubricin (PRG4) mRNA = assay: PRG4 mRNA expression in CAFs and ex vivo HCC specimens; format: cell-based, human; conditions: 48 hours; CAFs (p<0.01) and HCC samples (p<0.05)
Protocol: RNA extraction and cDNA synthesis: […] of frozen ex-vivo treated HCC tissues were ground with a mortar-pestle in the presence of liquid nitrogen until a thin powder was obtained. The ground tissues were lysed with 0.5-1 ml of RLT buffer+1% (BME) and then processed according to the manufacturer's recommendations (RNeasy kit, Qiagen). […] The obtained RNA was assayed for quality and concentration using the NanoDrop 2000/2000c (Thermo Fisher Scientific). cDNA was synthetized using the High Capacity cDNA reverse transcription kit (Thermo Fisher Scientific), according to relative datasheet.
Real time PCR: One ng/μl of cDNA was used in total 20 μl reaction mix in the presence of 500 nM of each forward and reverse primer referred to a specific gene of interest, and 2×SYBR green master mix (Bio-Rad). The reaction was conducted in a CFX96 Touch Real-Time Detection System (Bio-Rad).
CAFs isolation: Immediately after surgical resection, HCC tumoral and peritumoral specimens were minced into 0.5-1 cm pieces and left in MACS Tissue Storage Solution (Miltenyi Biotec). The tissues were then further cut into smaller size pieces (1-2 mm), washed three times in Hanks balanced salt solution (HBSS), and then incubated in HBSS in the presence of type IV collagenase (Thermo Fisher Scientific) and 3 mM CaCl2 at 37° C. under gentle rotation for 4 hours. At the end of this step, the dissociation was mechanically facilitated by pipetting up-down the digested tissues with a large size orifice 50 ml pipette. The floating cells were collected and washed three times with HBSS and seeded in normal culture conditions in IMDM+20% FBS. The decanted, partially digested tissue specimens were subjected to a second round of digestion (as previously described). The resulting dissociated cells were washed with HBSS and cultured in IMDM+20% FBS. […] The presence of minimal contaminating non-fibroblastic cells (mostly cancerous hepatocytes, cholangiocytes and macrophages) was evaluated using antibodies to EpCAM, CD45, and CD11b.

Smad2 = assay: phospho-Smad2 immunoblotting; format: cell-based, human; conditions: 100 pM TGFβ; 100 μg/mL rhPRG4; 12 h
Protocol: Cells were washed with PBS to remove all growth media. Appropriate volume of TNTE lysis buffer (50 mM Tris, 150 mM NaCl, 1 mM EDTA, 0.5% [v/v] Triton-X-100) containing protease and phosphatase inhibitors, was added to the cell monolayer and incubated at 4° C. under vigorous shaking for 20 minutes. Lysates were then collected in microcentrifuge tubes and centrifuged at 13,000 g for 10 minutes at 4° C. 5 μL of the lysate were subjected to protein concentration determination using Bradford-based protein assays (Bio-Rad Laboratories, Canada). Lysates were boiled for 3 minutes at 95° C. in dithiothreitol (DTT)-containing Laemmli sample buffer. For immunoprecipitation analyses, lysates were incubated with appropriate antibodies at 4° C. with gentle rocking for 3 h after which immunocomplexes were incubated with Protein G-conjugated agarose beads (UBPBio, USA) at 4° C. with gentle rocking for 3 h. Finally, the beads were washed with TNTE wash buffer (0.1% [v/v] Triton-X-100) and boiled for 5 minutes at 95° C. in dithiothreitol (DTT) containing Laemmli sample buffer. Immunoprecipitates and input lysates were then resolved by sodium dodecyl sulfate-polyacrylamide electrophoresis (SDS-PAGE) and transferred onto a nitrocellulose membrane (Bio-Rad Laboratories, Canada). […] Densitometric analyses were performed using Quantity One software (Bio-Rad Laboratories, Canada).

[1] = system: HCC cells (HLE, HLF, PLC/DC/19, Hep3B, PLC/PRF/5); assay: 72-hour proliferation assay, all HCC cells; format: cell-based, human
Protocol: Proliferation assay: In 100 μl complete medium, 3,000 cells were seeded in wells of a 96-well plate and left overnight to allow complete attachment. The next day (at time t=0 hours), the medium was removed and replaced with 100 μl of fresh medium in the presence/absence of Sorafenib (2.5 μM), Regorafenib (2.5 μM), rhPRG4 (12.5 to 100 μg/ml). Dimethyl sulfoxide (DMSO) and PBS+0.01% Tween-20 were used as vehicles of Sorafenib/Regorafenib, and rhPRG4, respectively. Cells in triplicate wells for each cell line were fixed at t=0 hours with 4% paraformaldehyde (PFA, pH 7.6, 10 min incubation), then stained with crystal violet (CV) and thoroughly washed to remove the excess staining. After 72 hours, the cells were fixed by adding 100 μl of 4% PFA directly to the medium (2% final PFA concentration, 20 min incubation), and processed for CV staining as previously described. Then, 100 or 200 μl of 1% sodium dodecyl-sulphate were added to the wells and the plates were left under shaking until complete CV release from stained cells. Optical density was at 595 nm wavelength measured using a plate reader.

[2] = system: non-metastatic triple negative breast cancer; assay: Treatment of a human with triple negative breast cancer, local injection; format: in vivo
Protocol: (§1) A human diagnosed with non-metastatic triple negative breast cancer is administered recombinant human PRG4 (rhPRG4) by local injection to the area of the tumor. Administration is done under local anesthesia. A total amount of 2 mL of rhPRG4 in physiological saline at a concentration of 100 ug/mL is administered via a 14 gauge needle. Several injections are made into the tumor and over its surface in order to disperse the dose throughout the tumor area. The dose is administered once weekly for four weeks.
as §1, with “weeks. During the dosing rhPRG4 schedule, the patient also receives a cocktail of taxane and doxorubicin per standard protocols.” for “weeks.”

Substance | expression of lubricin mRNA (lubricin (PRG4) mRNA) | TGFβ-induced phosphorylation of Smad2 (Smad2) | cell proliferation, rhPRG4 alone [1] | tumor size by CT scan after four weeks ([2]; 2 mL of 100 ug/mL rhPRG4, local injection, once weekly for four weeks) | tumor size by CT scan after four weeks, with taxane and doxorubicin ([2]; 2 mL of 100 ug/mL rhPRG4 locally weekly plus taxane and doxorubicin)
TGFβ: recombinant human mature transforming growth factor beta (R&D systems) [reference compound] | significantly enhanced the expression of lubricin | – | – | – | –
rhPRG4: full-length recombinant human PRG4 (lubricin) glycoprotein produced by CHO-M cells; residues 25-1404 of SEQ ID NO:1 | – | did not appreciably alter TGFβ-induced phosphorylation of Smad2; also recorded: did not reduce TGFβ-induced Smad2 phosphorylation | did not markedly impair the cell proliferation | tumor has shrunk in size | shrunk in size and at a rate faster
